Where only a bound is given, the exact number is not on record here.

As usually defined, the melting point is the temperature, or range, at which the solid turns liquid. Consider `CCc1nc(NC(=O)C2=C(O)c3ccc4ccccc4c3S(=O)(=O)N2)sc1C`, for which the melting point was 268 to 270 °C.
Then `CC(C)(C)NCC(O)COc1ccc(-c2nc(C#N)c[nH]2)cc1` (stereo unspecified), with 174 to 177 °C.
Then `N#CCC1NC(=O)C(Cc2ccccc2)NC1=O` (stereo unspecified), with 255 to 256 °C; and `CC1CC(=O)Nc2nc(OCCCCN3CCN(c4cccc(Cl)c4Cl)CC3)ccc21` (stereo unspecified), with 53 to 54 °C.
Then `NS(=O)(=O)c1ccc(N2N=C(C(F)(F)F)CC2c2ccc(F)cc2F)cc1` (stereo unspecified), with 161 to 162 °C; and `Cc1ccc(C(=O)S[C@@H](C)C(=O)N2CSC[C@H]2C(=O)O)cc1`, with 166 °C.
As to `O=C(O)c1cnc(Cl)nc1-c1ccccc1`, the melting point is 105 to 110 °C.
Molecule `N#Cc1cnc2cc(/C=C/c3ccncc3)ccc2c1Nc1ccc(Cl)cc1Cl` yielded a melting point of 240 to 242 °C.
Regarding `CC(C)C[C@H](NC(=O)C12CC3CC(CC(C3)C1)C2)C(=O)NCC(N)=O`, the melting point lay in the range of 123 to 127 °C.
Then `COc1cnc(C(=O)Cc2c(Cl)cncc2Cl)cc1OC1CCCC1`, with 132 °C; and `CCOC(=O)C(=CNc1nccs1)C(=O)c1c(Cl)cc(Cl)nc1Cl`, with 126 to 127 °C.
Then `CCS(=O)(=O)c1cc2c(c(C(=O)NCC3CCCN3C)c1)OCCO2` (stereo unspecified), with 140 to 141 °C; and `O=C(Nc1ccc(C2CC(F)(F)C2(F)Cl)cc1)Nc1nonc1-c1ccccc1` (stereo unspecified), with 201 °C.
`CCCC(C(=O)N(CC)CC)n1cc(C)c(-c2ccccc2)n1` (stereo unspecified) came in with a melting point of 65 to 67 °C.
The figure for `Nc1onc2c1CCC2` is 135 °C; for `CC(C(=O)O)c1ccc2c(c1)Cc1cc(O)ccc1-2` (stereo unspecified) it is 205 to 207 °C; for `Cc1ccccc1-n1cc(C#N)c(=O)[nH]c1=O` it is 252 °C.
The molecule `COc1ccc2cc(S(N)(=O)=O)oc2c1` had a melting point of 148 to 149 °C.
The figure for `O=C1c2ccccc2C(Cc2ccnc(Br)c2)(Cc2ccnc(Br)c2)c2ccccc21` is 182 to 183 °C; for `CC1COc2c(C3CC3)c(F)c(N)c3c(=O)c(C(=O)O)cn1c23` (stereo unspecified) it is > 280 °C.
Then `O=C(c1ccc(F)c(F)c1)N1CCC[C@H](c2nc(-c3cscn3)no2)C1`, with 107 to 109 °C; and `CCOCCCOc1ccc(-c2ccc3c(c2)C=C(C(=O)OC)CCN3S(C)(=O)=O)cc1`, with 127 to 129 °C.
Then `Cc1nn(-c2ccc(C#N)c(Cl)c2)c(C)c1Cc1ccc(C(=O)NC(C)(C)C)cc1`, with 135 to 136 °C; and `Cc1cc(-n2ccc(=O)[nH]c2=O)cc(Cl)c1Sc1ccc(Cl)cc1`, with 150 to 160 °C; and `O=[N+]([O-])c1cc(Cl)ncc1CCc1ccccc1`, with 76 to 78 °C.
Turning to `CCc1cnc(N2CCN(C(=O)c3ccccc3NC3(c4ccccc4)NC=Nc4ccccc43)CC2)nc1` (stereo unspecified), the melting point was > 250 °C.
Then `COc1cc(Nc2nsc(-c3ccccc3)n2)ccc1-c1cnco1`, with 260 to 261 °C; and `CC1(C(=O)O)Oc2ccc(Cl)cc2C(C)(c2ccccc2)O1` (stereo unspecified), with 181 °C.
Then `O=C1C(=O)N2CCCc3cc(Cl)cc1c32`, with 188 to 189 °C.
As for `COc1ccc(N2CCN(c3ccc(-n4c(C)nnc4S)cc3)CC2)cc1`, the melting point stood at 260 °C.
Then `CN(C)CCc1c[nH]c2ccc(CCC(=O)O)cc12`, with 195 to 200 °C; and `COCC(O)c1nc2c(C(F)(F)F)cccc2c(O)c1C(=O)Nc1nccs1` (stereo unspecified), with 216 to 218 °C.
The figure for `Cc1nc(-n2cnn(CC3CC3)c2=O)sc1C(=O)NCc1ccncc1` is 169 to 170 °C; for `CC(O)=C(C#N)C(=O)Nc1cccc(Cl)c1` it is 184 to 187 °C.
Then `CCc1cc(OC)cc(=O)o1`, with 54 to 55 °C.
Molecule `ClC1=Nc2cc(Cl)ccc2Sc2cscc21` registered a melting point of 234 to 235 °C.
